Test results from PubChem BioAssay AID2060905 (Molecular Pharmacology Branch, DTP, NCI, 2025).
Several values for one entry are separate records, joined by “and”; a condition that tells them apart may be missing. Equal entries are not always repeated.

System: 282377-053-R-J1-PDC complex spheroid viability
Assay: Anticancer human tumor 282377-053-R-J1-PDC patient-derived colon adenocarcinoma cell line growth inhibition [RAS]
Details: for viability, T/C: stronger effect = lower value
Procedure, shortened: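 Multi-cell-type spheroids: tumor cells plus HUVEC endothelial cells and mesenchymal stem cells. RAS-pathway inhibitors were combined with targeted agents, each dosed in half-log steps down from clinical Cmax, or from 10 microM when Cmax was unknown.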
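Further: spheroids exposed to agents for seven days before readout.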
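Wherever viability, T/C is given: luminescence viability as percent of DMSO vehicle control wells.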

## CC1(C)CCC(Nc2ncc(C(F)(F)F)c(-c3c[nH]c4c(P(C)(C)=O)c(C#N)ccc34)n2)CN1 (stereo not given) + C#Cc1c(F)ccc2cc(O)cc(-c3ncc4c(N5CC6CCC(C5)N6)nc(OCC56CCCN5CC(F)C6)nc4c3F)c12
Curve of first compound, second compound 0.0316 µM
  IC50: > 300 nM
Curve of first compound, second compound 0.1 µM
  IC50: > 300 nM
Curve of first compound, second compound 0.316 µM
  IC50: > 300 nM
Curve of first compound, second compound 1 µM
  IC50: > 300 nM
Curve of first compound, second compound 3.16 µM
  IC50: > 300 nM
Curve of first compound, second compound 10 µM
  IC50: > 300 nM
Second compound 0.0316 µM, first compound 0.000949 µM
  viability, T/C: 142%
Second compound 0.0316 µM, first compound 0.003 µM
  viability, T/C: 109%
Second compound 0.0316 µM, first compound 0.00949 µM
  viability, T/C: 91.4%
Second compound 0.0316 µM, first compound 0.03 µM
  viability, T/C: 69%
Second compound 0.0316 µM, first compound 0.0949 µM
  viability, T/C: 71.2%
Second compound 0.0316 µM, first compound 0.3 µM
  viability, T/C: 66.8%
Second compound 0.1 µM, first compound 0.000949 µM
  viability, T/C: 103%
Second compound 0.1 µM, first compound 0.003 µM
  viability, T/C: 132%
Second compound 0.1 µM, first compound 0.00949 µM
  viability, T/C: 87.1%
Second compound 0.1 µM, first compound 0.03 µM
  viability, T/C: 72.6%
Second compound 0.1 µM, first compound 0.0949 µM
  viability, T/C: 71.9%
Second compound 0.1 µM, first compound 0.3 µM
  viability, T/C: 72.5%
Second compound 0.316 µM, first compound 0.000949 µM
  viability, T/C: 118%
Second compound 0.316 µM, first compound 0.003 µM
  viability, T/C: 92.6%
Second compound 0.316 µM, first compound 0.00949 µM
  viability, T/C: 92.3%
Second compound 0.316 µM, first compound 0.03 µM
  viability, T/C: 67.1%
Second compound 0.316 µM, first compound 0.0949 µM
  viability, T/C: 71.9%
Second compound 0.316 µM, first compound 0.3 µM
  viability, T/C: 57.8%
Second compound 1 µM, first compound 0.000949 µM
  viability, T/C: 112%
Second compound 1 µM, first compound 0.003 µM
  viability, T/C: 110%
Second compound 1 µM, first compound 0.00949 µM
  viability, T/C: 96.9%
Second compound 1 µM, first compound 0.03 µM
  viability, T/C: 80.4%
Second compound 1 µM, first compound 0.0949 µM
  viability, T/C: 74.9%
Second compound 1 µM, first compound 0.3 µM
  viability, T/C: 67.7%
Second compound 3.16 µM, first compound 0.000949 µM
  viability, T/C: 93%
Second compound 3.16 µM, first compound 0.003 µM
  viability, T/C: 103%
Second compound 3.16 µM, first compound 0.00949 µM
  viability, T/C: 98.8%
Second compound 3.16 µM, first compound 0.03 µM
  viability, T/C: 75.4%
Second compound 3.16 µM, first compound 0.0949 µM
  viability, T/C: 83.6%
Second compound 3.16 µM, first compound 0.3 µM
  viability, T/C: 72.9%
Second compound 10 µM, first compound 0.000949 µM
  viability, T/C: 113%
Second compound 10 µM, first compound 0.003 µM
  viability, T/C: 87.3%
Second compound 10 µM, first compound 0.00949 µM
  viability, T/C: 98%
Second compound 10 µM, first compound 0.03 µM
  viability, T/C: 88.4%
Second compound 10 µM, first compound 0.0949 µM
  viability, T/C: 98.6%
Second compound 10 µM, first compound 0.3 µM
  viability, T/C: 76.7%

## CCn1c(-c2cc(N3CCN(C)CC3)cnc2C(C)OC)c2c3cc(ccc31)-c1csc(n1)CC(NC(=O)C1CC1C)C(=O)N1CCCC(N1)C(=O)OCC(C)(C)C2 (stereo not given)
Compound 0.003 µM
  viability, T/C: 95.7% [middle of 8 runs]
Compound 0.00949 µM
  viability, T/C: 98.4% [middle of 8 runs]
Compound 0.0949 µM
  viability, T/C: 105% [middle of 8 runs]
Compound alone, run of 05/20/2024
  IC50: > 300 nM

## CC1(O)CCCC1n1c(=O)c(C(F)F)cc2cnc(NC3CCN(S(C)(=O)=O)CC3)nc21 (stereo not given)
Compound 0.1 µM
  viability, T/C: 128% [middle of 4 runs]
Compound 1 µM
  viability, T/C: 112% (2×) and 190% and 160%
Compound 10 µM
  viability, T/C: 5.45% [middle of 4 runs]
Curve of compound
  IC50: 6.64 µM [middle of 4 runs]
